The nature of data set [1]: 31P-NMR phase preference of equimolar DOPE:cholesterol mixtures with bilayer stabilizing component (BSC). In kind it is physicochemical. The method, then: Lipid components were mixed in 1-2 ml of benzene:methanol (95:5, v/v) and then lyophilized for a minimum of 5 hours at a pressure of <60 millitorr using a Virtis lyophilizer equipped with a liquid N2 trap. Multilamellar vesicles (MLVs) were prepared by hydrating the dry lipid mixtures in 150 mM NaCl, buffered with 10 mM Hepes-NaOH, pH 7.4 (Hepes-buffered saline, HBS). Mixtures were vortexed to assist hydration. To produce large unilamellar vesicles (LUVs), MLVs were first frozen in liquid nitrogen and then thawed at 30° C. five times. LUVs were produced by extrusion of the frozen and thawed MLVs ten times through 2 stacked polycarbonate filters of 100 nm pore size at 30° C. and pressures of 200-500 psi (Hope, et al., Biochim. Biophys. Acta, 812:55-65 (1985)).
^31P-NMR spectra were obtained using a temperature controlled Bruker MSL200 spectrometer operating at 81 MHz. Free induction decays were accumulated for 2000 transients using a 4 μs, 90° pulse, 1 sec. interpulse delay, 20 KHz sweep width and Waltz decoupling. A 50 Hz line broadening was applied to the data prior to Fourier transformation. Samples were allowed to equilibrate at the indicated temperature for 30 minutes prior to data accumulation. Lipid concentrations of 30-70 mM were used.

Data set [2] is described as follows: Lipid mixing (FRET) assay, NaCl-induced fusion of DOPE:DODAC liposomes. Conditions: DOPE:DODAC:PEG-lipid 83:15:2, 300 mM NaCl, POPC sink. The method, then: (§1) Lipid mixtures were prepared as described for NMR measurements. The resultant multilamellar vesicles (MLV) were frozen in liquid nitrogen and then thawed at 30° C. five times. Large unilamellar vesicles (LUV) were produced by extrusion of the frozen and thawed MLV ten times through 2 stacked polycarbonate filters of […] pore size at 30° C. and pressures of 200-500 psi (Hope, et al., Biochim. Biophys. Acta 812:55-65 (1985)).
Lipid mixing was measured by a modification of the fluorescence resonance energy transfer (FRET) assay of Struck, et al. (Biochemistry 20:4093-4099 (1981)). […] Fluorescence emission intensity was measured at 517 nm with excitation at 465 nm both before and after the addition of Triton X-100 (final concentration of 0. 5% or 1% when POPC sink was used). Data is presented as either uncorrected fluorescence intensity for short term assays (<1 hour) or as percentage fusion. […] Maximum fusion was determined using mock fused vesicles containing 0.125 mol % of each fluorescent probe. The percentage fusion was calculated as: [formula]
where F(t)=fluorescence intensity at time t; Fo=fluorescence intensity at zero time; FT=fluorescence intensity in the presence of Triton X-100. […]

Data set [3] in a line: Lipid mixing (FRET) assay, Ca2+-induced fusion of PE:PS LUVs. The method, then:
as §1
Lipid mixing was measured by a modification of the fluorescence resonance energy transfer (FRET) assay of Struck, et al. (Biochemistry 20:4093-4099 (1981)). LUVs were prepared containing the fluorescent lipids, N-(7-nitro-2-1,3-benzoxadiazol-4-yl)-dioleoylphosphatidylethanolamine (NBD-PE) and N-(lissamine rhodamine B sulfonyl)-dipalmitoylphosphatidylethanolamine (Rh-PE) at 0.5 mol %. LUVs (50-60 μM) and a three-fold excess of unlabelled target vesicles were mixed in the fluorimeter at 37° C. for short term assays (≦1 hour), or in sealed cuvettes in a dark water bath at 37° C. for longer assays. For measurements of fusion after PEG-lipid transfer, an excess of liposomes prepared from 1-palmitoyl-2-oleoyl-phosphatidylcholine (POPC) was added as a sink for the PEG-lipid. Fluorescence emission intensity was measured at 517 nm with excitation at 465 nm both before and after the addition of Triton X-100 (final concentration of 0. 5% or 1% when POPC sink was used). Data is presented as either uncorrected fluorescence intensity for short term assays (<1 hour) or as percentage fusion. Light scattering controls were performed by replacing LUVs labelled with 0.5 mol % probes with unlabelled vesicles. Maximum fusion was determined using mock fused vesicles containing 0.125 mol % of each fluorescent probe. The percentage fusion was calculated as: [formula]
where F(t)=fluorescence intensity at time t; Fo=fluorescence intensity at zero time; FT=fluorescence intensity in the presence of Triton X-100. M and L represent the same measurements for the mock fused control and the light scattering control respectively.

Where [4] appears, read: PE:PS LUVs, 2 mol % PE-PEG2000, POPC sink.

From patent US6673364B1, “Liposome having an exchangeable component” (The University of British Columbia, priority 1995, dated 2004) come the findings set out here.

A value given as a limit tells only on which side of the number the result lay.

Turning to “1-O-methyl-(poly(ethoxy)-O-succinyl-O-(egg)ceramide [egg ceramide-PEG2000]”, the “phase preference (31P-NMR)” value in data set [1] (DOPE:cholesterol:BSC 1:1:0.1, 0 to 60° C.) was “both bilayer and HII phase lipid are in evidence at most temperatures”; in data set [1] (equimolar DOPE:cholesterol, BSC 20 mol % of phospholipid (1:1:0.25)) it was “exclusively bilayer up to 60 °C”. Besides, the “time for 50% maximal fusion” value in data set [2] (37° C.) is recorded as “over 20 hr”.

Consider “PEG2000 conjugated to dimyristoylphosphatidylethanolamine [DMPE-PEG2000]”, for which the “time delay (lag phase) prior to fusion” value in data set [3] (2, 3, 5 or 10 mol % PEG-lipid, 36fold excess POPC liposomes) is given as “increase in the time delay prior to fusion with increasing PEG-lipid concentration”. The “concentration sufficient to eliminate (completely inhibit) Ca2+-induced fusion” value in data set [3] (PE:PS (1:1) LUVs, 5 mM Ca2+, 37° C.) came to 2 mol %. For the same substance, the “time at which fusion was essentially complete” value in data set [3] (setting [4]) was 40 min. For the same substance, the “extent of fusion at 21 hr” value in data set [2] is listed as < 20 % of maximum.

As to “PEG2000 conjugated to dipalmitoylphosphatidylethanolamine [DPPE-PEG2000]”, the “time at which fusion was essentially complete” value in data set [3] (setting [4]) was determined as 1440 min. In addition, in data set [3] (relative to DMPE-PEG2000), the “implied decrease in rate of transfer (acyl chains 14 to 16 carbons)” value was 30-40 fold.

With “PEG2000 conjugated to distearoylphosphatidylethanolamine [DSPE-PEG2000]”, the “level of fusion after 24 hours” value in data set [3] (setting [4]) is given as 20 % of maximum.
